{
  "source": "patent US20120064556A1",
  "about": "“LIPOPROTEIN LIPASE ASSAY” (THE RESEARCH FOUNDATION OF STATE UNIVERSTIY OF NEW YORK, priority 2010, published 2012)",
  "key": {"lipoprotein lipase (LPL)": {"tested_on": "lipoprotein lipase (LPL)", "assay": "EnzChek substrate fluorescence assay of LPL activity", "assay_type": "biochemical", "details": "for increase of LPL activity: over the concentration ranges tested (FIGS. 5A and 5B)", "procedure": "In FIG. 1, background substrate hydrolysis was deducted from each measurement, initial rate was plotted against substrate concentration and each data point is the mean of triplicate determinations.\nThe effects of components that may be present in biological LPL samples and affect the assay were also evaluated and illustrated in FIG. 5. Addition of heparin and calcium increased LPL activity by about 6% over the concentration ranges tested, shown in FIGS. 5A and 5B, while HIS, added from 0-10% decreased the activity by about 12%, shown in FIG. 5C. Addition of NaCl increased the reaction rate, shown in FIG. 5D, with the highest rate, 46% higher than that without salt, occurring at 0.15 M. As NaCl was increased further, the reaction rate dropped, but even at 2.5 M was not reduced to that without NaCl. This implies that there is no inhibition of LPL activity by NaCl if apoC-II is not used in the assay.\nThe SpectraMax® M2 plate reader and SoftMax® Pro 5 from MDS Analytical Technologies were used for fluorescent measurements. The optimal wavelength was determined to be […] with a 495 nm filter cutoff. The linear capacity of these instruments is up to 2.4 μmol/well. An assay was performed in a black 96-well plate from Costar® in the presence of 0.15 M NaCl, 20 mM Tris-HCl, and 0.0125% Zwittergent® and 1.5% fatty acid free BSA. A 4× working solution was freshly prepared with 0.6 M NaCl, 80 mM Tris-HCl and 6% fatty acid free BSA. The background hydrolysis rate of the substrate was about 1 pmol/min. In the typical assay, the amount of substrate hydrolyzed was less than about 5% of the available substrate.\nEnzymatic parameters were calculated using unquenched the BODIPY-C12 probe, the reaction rate in pmol/min was calculated. The rate of hydrolysis as determined from the continuous increase in fluorescence intensity is equal to the rate of separation of the quencher fatty acid from the substrate. Enzymatic parameters such as Vmax, Km, Kcat, detection limit, Z factors and correlation coefficient were calculated based on the standard definition of those parameters. The data is presented as mean plus standard deviation of three replicates and described below in Example 2 for a comparison of the inventive method and a traditional assay."}, "[1]": {"assay": "solubility and shelf life of substrate in the assay buffer", "assay_type": "physicochemical"}, "human LPL [2]": {"target": "T1, human LPL (Homo sapiens, UniProt P06858)", "T1 construct": "made in house; host or cells: HEK293 (conditioned medium, not purified)", "T1 sequence (P06858 28-475)": "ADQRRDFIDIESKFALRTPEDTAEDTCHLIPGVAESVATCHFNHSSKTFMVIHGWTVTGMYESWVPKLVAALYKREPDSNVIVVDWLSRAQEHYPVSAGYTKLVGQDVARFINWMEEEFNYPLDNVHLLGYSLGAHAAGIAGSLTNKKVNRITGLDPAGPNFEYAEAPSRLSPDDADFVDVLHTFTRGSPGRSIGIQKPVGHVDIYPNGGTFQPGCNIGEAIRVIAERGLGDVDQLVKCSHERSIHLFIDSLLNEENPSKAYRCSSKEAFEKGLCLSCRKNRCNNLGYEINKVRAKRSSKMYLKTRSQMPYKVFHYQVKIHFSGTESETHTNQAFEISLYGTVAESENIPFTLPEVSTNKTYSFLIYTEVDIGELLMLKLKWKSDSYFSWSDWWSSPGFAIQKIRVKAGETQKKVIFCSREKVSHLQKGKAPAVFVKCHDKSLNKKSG", "assay": "EnzChek assay of human LPL activity in conditioned media", "assay_type": "biochemical", "details": "25 μL conditioned medium mixed with 25 μL human LPL medium, 30 minutes on ice, 0.62 μM EnzChek substrate, p<0.05 (FIG. 6A)", "procedure": "Conditioned media was generated by transfection in HEK293 cells as is known. Medium obtained from cells expressing from an empty vector was included as a control for the LPL assay. No lipase activity was detected in the control medium. Pre and post-heparin mouse serum was obtained from blood drawn 5 minutes after the injection of 10 units heparin per kg body weight of the mouse.\nTo determine whether the conditions of the assay are such that the two forms of the enzyme are maintained and can be differentiated by the biological activity of the lipase, two conditioned media were generated containing human LPL and ANGPTL4 respectively.\n(§1) Background substrate hydrolysis was deducted from each measurement. LPL activity is expressed as a percentage of the activity measured in the absence of ANGPTL4. The values are the mean +/− standard deviation in triplicate repeats, p<0.05."}, "human LPL [3]": {"target": "T1, human LPL", "assay": "radiolabeled triolein assay of human LPL activity in conditioned media", "assay_type": "biochemical", "details": "same samples, radiolabeled triolein assay (FIG. 6B)", "text": "as §1"}},
  "data": [
    {"molecule": "[Cl-].[Na+]", "note": "[NaCl]", "values": [
      {"measurement": "reaction rate higher than that without salt", "setting": "lipoprotein lipase (LPL); highest rate, at 0.15 M (FIG. 5D)", "result": 46, "unit": "%"},
      {"measurement": "inhibition of LPL activity", "setting": "lipoprotein lipase (LPL); up to 2.5 M, apoC-II not used in the assay", "result": "no inhibition"}
    ]},
    {"molecule": "CCCCCCCCCCCCOCC(COC(=O)CCCC(=O)Oc1ccc2nc3ccc(=O)cc-3oc2c1C)OCCCCCCCCCCCC", "note": "(racemic) [DGGR substrate, 1,2-o-dilauryl-rac-glycero-3-glutaric acid-(6′-methylresorufin) ester]", "values": [
      {"measurement": "shelf life / precipitation in the assay buffer", "setting": "[1]", "result": "precipitated after only one week"},
      {"measurement": "solubility in the assay buffer", "setting": "[1]", "result": "limited solubility"}
    ]},
    {"molecule": "[Ca+2]", "note": "[calcium]", "values": [
      {"measurement": "increase of LPL activity", "setting": "lipoprotein lipase (LPL)", "result": "about 6%"}
    ]},
    {"molecule": "heparin [reference compound]", "values": [
      {"measurement": "increase of LPL activity", "setting": "lipoprotein lipase (LPL)", "result": "about 6%"}
    ]},
    {"molecule": "ANGPTL4 conditioned media: conditioned medium from transfected HEK293 cells containing ANGPTL4, an endogenous inhibitor of LPL (protein, UniProt Q9BY76 26-406, looked up, in conditioned medium of transfected HEK293 cells) Angiopoietin-related protein 4: GPVQSKSPRFASWDEMNVLAHGLLQLGQGLREHAERTRSQLSALERRLSACGSACQGTEGSTDLPLAPESRVDPEVLHSLQTQLKAQNSRIQQLFHKVAQQQRHLEKQHLRIQHLQSQFGLLDHKHLDHEVAKPARRKRLPEMAQPVDPAHNVSRLHRLPRDCQELFQVGERQSGLFEIQPQGSPPFLVNCKMTSDGGWTVIQRRHDGSVDFNRPWEAYKAGFGDPHGEFWLGLEKVHSITGDRNSRLAVQLRDWDGNAELLQFSVHLGGEDTAYSLQLTAPVAGQLGATTVPPSGLSVPFSTWDQDHDLRRDKNCAKSLSGGWWFGTCSHSNLNGQYFRSIPQQRQKLKKGIFWKTWRGRYYPLQATTMLIQPMAAEAAS", "values": [
      {"measurement": "effect on LPL activity", "setting": "human LPL [2]", "result": "inhibited the LPL activity"},
      {"measurement": "effect on LPL activity", "setting": "human LPL [3]", "result": "comparable result"}
    ]}
  ]
}
